This note sets out measurements from patent US10844354B2, “Cardiomyocyte maturation” (Ncardia B.V., priority 2014, dated 2020).

This experiment has as its system stem-cell derived cardiomyocytes. The experiment is described as follows: Perforated patch clamp action potential measurement of spontaneously beating stem-cell derived cardiomyocytes. Format: cell-based, human. The settings on record: induced pluripotent stem cell derived cardiomyocytes. On the procedure: Differentiated (fetal-like/immature) human stem-cell derived cardiomyocytes were subsequently cultured and allowed to mature as described below, although any other method in the art may suitable be used. Tissue culture plastic was coated using Matrigel (Corning) at a concentration of 1/100 in DMEM, for 45 min at room temperature. A single cell suspension coming from dissociated embryoid bodies, dissociated monolayers or (commercially obtained) frozen (fetal-like (immature)) stem-cell derived cardiomyocytes were seeded at an appropriate density on matrigel coated tissue culture plastic (e.g. in 20-40 k cells per well of a 96-well plate, e.g. 20-200 k per well of a 12 well plate). On day 1 following plating, the foetal-like (immature) cardiomyocytes were exposed to a culture medium composition of the invention, which consists of a serum-free culture medium composition comprising 50 ng/ml of T3 (Sigma T6397), 2 mM of carnitine, 5 mM of creatine, 5 mM of taurine, 2.2 microgram/ml of cholesterol, 0.1 microgram/ml of linoleic acid, 0.1 microgram/ml of linolenic acid, 0.1 microgram/ml of palmitic acid (lipids, for example, from Gibco 11905), 10 mg/ml of insulin, 5.5 mg/ml of transferrin, 0.0067 mg/ml of selenium (insulin, transferrin and selenium from e.g. Gibco 51500), 0.01% of trace element mix B (as described herein; Cellgro 99-175-CL), 0.1% of trace element mix C (as described herein; Cellgro 99-176-CL), 0.5 w/w % of antibiotics (penicillin-streptomycin mixture commercially available Gibco (Gibco 12070; 5000 U/ML), 0.05 mg/ml ascorbic acid, 2 mM of Glutamax supplement (i.e. L-alanyl-L-glutamine dipeptide in 0.85% NaCl, commercially available at Gibco, e.g. Gibco 35050), 0.125 w/w % polyvinylalcohol (PVA), 450 nM of alpha monothiolglycerol (MTG) (commercially available), 025 w/w %/o BSA (Bovostar BSAS1.0) in 46.5% (w/w) IMDM (Gibco 21056) and 46.5% (w/w) HAM F-12 with glutamax (Gibco 31765). All concentrations are expressed as final concentration in the culture medium composition. This step was repeated every 2-3 days. In those experiments that also use thyroid hormone or a thyroid hormone analog, treatment with the culture medium composition as taught herein comprising e.g. T3 started either at day 1, day 3 or day 7 post plating.
At day 10 dbcAMP was added to a final concentration of 0.5 mM and the cell were further cultured. Action potential measurements of control and dbcAMP treated cells were performed using the patch clamp technique at 24, 48 and 72-hours post addition of the cAMP-raising compound.
Electrophysiology of the cells treated with the cAMP-raising compound or not was determined by standard techniques in the art, in particular with the method as described by for example, Bellin et al. (EMBO J. 2013; 32(24): 3161-3175), with the modification that in the examples provide herein spontaneous activity of the stem-cell derived cardiomyocytes was determined and no electric stimulation was required, although measurement may, as the skilled person knows, also be done under conditions of stimulation. Action potentials from small groups of cells (5-10 cells) were measured with the perforated patch clamp technique using an Axopatch 200b amplifier (Molecular Devices) and low resistance patch pipettes (1.5-2.5 MΩ). Data acquisition and analyses of action potentials were performed with pClamp 10 (axon instruments) and custom made software. Action Potentials were corrected for the calculated liquid junction potential (−15 mV).
Action potential from spontaneous beating cells were measured at 37±0.20 C using a modified Tyrode's solution containing (in mM): 140 NaCl, 5.4 KCl, 1.8 CaCl2, 1.0 MgCl2, 5.5 glucose, 5.0 HEPES; pH7.2 (NaOH).
The pipette solution contained (in mM): 125 K-gluconate, 20 KCl, 5 NaCl, 0.22 amphotericin-B, 10 HEPES; pH 7.2 (KOH). […]
In general terms: In patch-clamp work, channel activity is measured electrically.

Molecules are shown by their SMILES.

With `CCCC(=O)Nc1ncnc2c1ncn2[C@@H]1O[C@@H]2COP(=O)(O)O[C@H]2[C@H]1OC(=O)CCC` [dbcAMP, N6,2′-O-dibutyryladenosine 3′,5′-cyclic monophosphate], for the setting “0.5 mM dbcAMP for 24, 48 and 72 hrs vs non-treated, FIG. 1”, the upstroke velocity result is “improved the upstroke velocity dramatically”. Also, the “resting membrane potential (liquid junction potential corrected)” value (0.5 mM dbcAMP for 24, 48 and 72 hrs vs non-treated, FIG. 2) is recorded as “improved the resting membrane potential dramatically”. In addition, the representative action potentials entry is, setting by setting: (dbcAMP for 24, 48 and 72 hrs vs non-treated, FIG. 3) “action potentials that are more adult cardiomyocyte like”; (dbcAMP for 72 hrs vs non-treated, FIG. 6) “action potentials that are more adult cardiomyocyte like”. For the same molecule, the amplitude entry (dbcAMP for 24, 48 and 72 hrs vs non-treated, FIG. 4) was “improves the amplitude”. The repolarization parameters entry (dbcAMP for 24, 48 and 72 hrs vs non-treated, FIG. 5) is “improves the repolarization parameters”.
